Measurements reported in patent US7767651B2, “Spiroketal derivatives and use thereof as diabetic medicine” (Chugai Seiyaku Kabushiki Kaisha, priority 2005, dated 2010).

Key:
human SGLT2 = target: T1, human SGLT2 (Homo sapiens, UniProt P31639); experiment: Inhibitory activity against methyl-α-D-glucopyranoside uptake of human SGLT2; format: cell-based; settings: SGLT2 inhibition; methyl-α-D-(U-14C)glucopyranoside uptake in CHO-K1 cells stably expressing human SGLT2, 45 minutes at 37° C.
T1 construct: expressed in transfected cells; host or cells: CHO-K1
T1 sequence (P31639 1-672): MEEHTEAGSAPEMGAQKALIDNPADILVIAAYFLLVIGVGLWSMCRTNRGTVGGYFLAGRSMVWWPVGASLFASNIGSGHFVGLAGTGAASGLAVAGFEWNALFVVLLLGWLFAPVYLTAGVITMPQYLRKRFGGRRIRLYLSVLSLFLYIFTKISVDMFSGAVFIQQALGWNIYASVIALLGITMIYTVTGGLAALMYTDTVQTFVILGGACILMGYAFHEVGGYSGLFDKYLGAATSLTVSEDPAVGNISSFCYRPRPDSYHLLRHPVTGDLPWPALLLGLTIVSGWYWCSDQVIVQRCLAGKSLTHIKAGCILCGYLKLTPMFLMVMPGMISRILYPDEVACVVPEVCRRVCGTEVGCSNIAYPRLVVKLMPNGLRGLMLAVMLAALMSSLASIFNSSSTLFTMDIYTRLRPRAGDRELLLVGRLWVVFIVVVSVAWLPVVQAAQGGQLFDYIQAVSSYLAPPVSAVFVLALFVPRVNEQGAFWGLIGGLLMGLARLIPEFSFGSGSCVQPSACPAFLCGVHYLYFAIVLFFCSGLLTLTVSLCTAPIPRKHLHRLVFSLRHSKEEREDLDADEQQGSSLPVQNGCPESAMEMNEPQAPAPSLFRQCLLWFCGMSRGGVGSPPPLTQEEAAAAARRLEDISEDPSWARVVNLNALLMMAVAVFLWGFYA
Text: Evaluation of Inhibitory Activity Against methyl-α-D-glucopyranoside uptake of human Na^+-glucose cotransporter (SGLT1 and SGLT2)
Human SGLT2 cDNA was amplified by PCR with a cDNA library derived from human kidney (Clontech) as a template, synthetic DNA primers and KOD+ DNA Polymerase. The amplified cDNA was inserted into pcRII-Topo vector by using a Topo TA Cloning Dual Promoter kit. E. coli competent cells (TPO10) were transformed with the plasmid vector, cultured in LB medium containing ampicillin (50 mg/L) to grow ampicillin-resistant clones. The plasmid vector containing human SGLT2 cDNA was purified from the clone in a standard manner. Human SGLT2 cDNA added restriction enzyme recognition sites (Xho I at 5′-end, Hind III at 3′-end) was amplified by PCR with the plasmid vector as a template, synthetic DNA primers containing an additional restriction enzyme recognition site and KOD+ DNA Polymerase. This amplified cDNA was digested with Xho I and Hind III, and ligated into expression vector pcDNA3.1(−) digested with Xho I and Hind III by using a Rapid DNA Ligation kit. E. coli competent cells (DH5α) were transformed with the ligated expression vector and grown in ampicillin-containing LB medium. Human SGLT2 expression vector was purified from the ampicillin-resistant clone in a standard manner.
The human SGLT1 expression vector or the human SGLT2 expression vector was digested with the restriction enzyme Pvu I and transfected into CHO-Kl cells with FuGENE (Roche Diagonostics). After the transfection, the cells were cultured at 37° C. in the presence of 5% CO2 for about 3 weeks in DMEM medium (Gibco) containing penicillin (50 U/mL, SIGMA), streptomycin (50 mg/L, SIGMA), geneticin (200 mg/L, Nacalai Tesque, Inc., Japan) and 20% fetal bovine serum to obtain geneticin-resistant clones. Among these clones, clones stably expressing human SGLT1 or human SGLT2 were selected by the evaluating the sodium-dependent uptake activity of sugar (methyl-α-D-glucopyranoside). […]

[1] = test system: sugar transporters of the facilitated diffusion type; settings: aglycon of phloridzin; reported; cited from earlier work
[2] = intravenously administered to rats; Nonpatent Document 2; cited from earlier work

## CCc1ccc(Cc2ccc3c(c2)[C@]2(OC3)O[C@H](CO)[C@@H](O)[C@H](O)[C@H]2O)cc1 [Example 1, 1,1-Anhydro-1-C-[5-(4-ethylphenyl)methyl-2-(hydroxymethyl)phenyl]-β-D-glucopyranose]
Human SGLT2
  IC50: 4.2 nM

## OC[C@H]1O[C@]2(OCc3ccc(Cc4cc5ccccc5s4)cc32)[C@H](O)[C@@H](O)[C@@H]1O [Example 2, 1,1-Anhydro-1-C-[5-(2-benzothiophenyl)methyl-2-(hydroxymethyl)phenyl]-β-D-glucopyranose]
Human SGLT2
  IC50: 4 nM

## CC(C)c1ccc(Cc2ccc3c(c2)[C@]2(OC3)O[C@H](CO)[C@@H](O)[C@H](O)[C@H]2O)cc1 [Example 4, 1,1-Anhydro-1-C-[5-(4-isopropylphenyl)methyl-2-(hydroxymethyl)phenyl]-β-D-glucopyranose]
Human SGLT2
  IC50: 5 nM

## O=C(CCc1ccc(O)cc1)c1c(O)cc(O)cc1O [phloretin]
[1]
  inhibition of sugar transporters of the facilitated diffusion type: strongly inhibit
[2]
  adverse effect on intracerebral glucose levels: reducing intracerebral glucose levels
